In patent US20020137929A1, “1 - (3-heterocyclylphenyl) isothiourea, -isourea, -guanidine and -amidine herbicidal agents” (Intellectual Property Department, BASF Aktiengesellschaft, priority 1998, published 2002):

Key:
[1] = system: CHEAL (Lambsquarters, Common); assay: Postemergence herbicidal evaluation; type: in vivo, Chenopodium album; conditions: for CHEAL herbicidal rating: postemergence
Outline: (§1)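 ~2-wk seedlings; postemergence spray, 40 psi; vehicle 1:1 acetone:water + 0.5% Tween 20; rate ≈0.0156–0.500 kg/ha; greenhouse hold; scored 4–5 wk after treatment, 0–9 scale vs control; repeat tests averaged.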

CYPSE (Flatsedge) = assay: Postemergence weed control under flooded paddy conditions; type: in vivo, Cyperus serotinus; conditions: postemergence weeds
Outline: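 Herbicidal effect is judged by eye on a 0–9 scale versus control, 3–4 weeks after dosing. Dosing is into flood water kept 1.5–3 cm over the soil, at about 0.0313–0.500 kg/ha in aqueous/acetone 50/50 v/v, on 3–5 cm weeds and 1.5–2.5-leaf rice seedlings.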

[2] = system: TRZAWR (Wheat, Winter, cv Riband); assay: Preemergence herbicidal evaluation; type: in vivo, Triticum aestivum; conditions: rated 4-5 weeks after treatment
Outline: (§2)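 Visual 0-9 rating vs control (stand, vigor, malformation, size, chlorosis, overall appearance), scored 4-5 wk after spraying. Seeded soil cups were treated preemergence with compound in aqueous acetone, ~0.0156-0.500 kg/ha equivalent.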

ZEAMX (Corn, Field) = assay: Preemergence herbicidal evaluation; type: in vivo, Zea mays; conditions: rated 4-5 weeks after treatment
Outline: as §2

[3] = system: GLXMAW (Soybean, Williams); assay: Preemergence herbicidal evaluation; type: in vivo, Glycine max, (L.) Merr. cv Williams; conditions: rated 4-5 weeks after treatment
Outline: as §2

[4] = system: SAGPY (Arrowhead (Pygmaea)); assay: Preemergence weed control under flooded paddy conditions; type: in vivo, Sagittaria pygmaea; conditions: rated 3-4 weeks after treatment
Outline: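 Silt loam, seeds in top 0.5 cm; flood held 1.5-3 cm; test cpd as acetone/water 50/50 into flood water, ~0.0313-0.500 kg/ha a.i.; greenhouse 3-4 wk; visual 0-9 score vs control.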

SETVI (Foxtail, Green) = assay: Preemergence herbicidal evaluation; type: in vivo, Setaria viridis; conditions: rated 4-5 weeks after treatment
Outline: as §2

ORYSAT (Rice, Tebonnet) [5] = assay: Postemergence herbicidal evaluation; type: in vivo, Oryza sativa, (L.) Tebonnet; conditions: for ORYSAT herbicidal rating: postemergence
Outline: as §1

ORYSAT (Rice, Tebonnet) [6] = assay: Preemergence herbicidal evaluation; type: in vivo, Oryza sativa, (L.) Tebonnet; conditions: rated 4-5 weeks after treatment
Outline: as §2

GALAP (Galium) = assay: Preemergence herbicidal evaluation; type: in vivo, Galium aparine; conditions: rated 4-5 weeks after treatment
Outline: as §2

CASOB (Sicklepod) = assay: Postemergence herbicidal evaluation; type: in vivo, Cassia obtusifolia; conditions: for CASOB herbicidal rating: postemergence
Outline: as §1

ECHCG (Barnyardgrass) = assay: Postemergence herbicidal evaluation; type: in vivo, Echinochloa crus-galli; conditions: for ECHCG herbicidal rating: postemergence
Outline: as §1

CYPIR (Rice Flatsedge) = assay: Preemergence weed control under flooded paddy conditions; type: in vivo, Cyperus iria; conditions: rated 3-4 weeks after treatment
Outline: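 Ratings on a 0-9 visual scale cover stand, vigor, malformation, size, chlorosis and overall appearance relative to a control, taken three to four weeks post-treatment. Application was into flood water over freshly sown silt loam at roughly 0.0313 to 0.500 kg/ha.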

CCOC(=O)CN1CCSC1=Nc1cc(-n2nc(C)n(C(F)F)c2=O)c(F)cc1Cl [Compound 36]
Postemergence herbicidal rating CHEAL ([1]; Rate 0.0158 kg/ha): 2.0 | Postemergence herbicidal rating CHEAL ([1]; Rate 0.0315 kg/ha): 3.0 | Postemergence herbicidal rating CHEAL ([1]; Rate 0.0630 kg/ha): 4.0 | Herbicidal rating CYPSE (CYPSE (Flatsedge); rate 0.0313 kg/ha, 3-4 weeks after treatment): 0.0 | Herbicidal rating CYPSE (CYPSE (Flatsedge); rate 0.0625 kg/ha, 3-4 weeks after treatment): 0.0 | Herbicidal rating CYPSE (CYPSE (Flatsedge); rate 0.1250 kg/ha, 3-4 weeks after treatment): 2.0 | Herbicidal rating CYPSE (CYPSE (Flatsedge); rate 0.2500 kg/ha, 3-4 weeks after treatment): 4.0 | Preemergence herbicidal rating TRZAWR ([2]; rate 0.0625 kg/ha): 0.0 | Preemergence herbicidal rating TRZAWR ([2]; rate 0.1250 kg/ha): 1.0 | Preemergence herbicidal rating TRZAWR ([2]; rate 0.2500 kg/ha): 0.0 | Preemergence herbicidal rating ZEAMX (ZEAMX (Corn, Field); rate 0.0625 kg/ha): 0.0 | Preemergence herbicidal rating ZEAMX (ZEAMX (Corn, Field); rate 0.1250 kg/ha): 3.0 | Preemergence herbicidal rating ZEAMX (ZEAMX (Corn, Field); rate 0.2500 kg/ha): 6.0 | Preemergence herbicidal rating GLXMAW ([3]; rate 0.0625 kg/ha): 0.0 | Preemergence herbicidal rating GLXMAW ([3]; rate 0.1250 kg/ha): 0.0 | Preemergence herbicidal rating GLXMAW ([3]; rate 0.2500 kg/ha): 0.0 | Herbicidal rating SAGPY ([4]; 0.0313 kg/ha): 0.0 | Herbicidal rating SAGPY ([4]; 0.0625 kg/ha): 0.0 | Herbicidal rating SAGPY ([4]; 0.1250 kg/ha): 3.0 | Herbicidal rating SAGPY ([4]; 0.2500 kg/ha): 9.0 | Preemergence herbicidal rating SETVI (SETVI (Foxtail, Green); rate 0.0625 kg/ha): 0.0 | Preemergence herbicidal rating SETVI (SETVI (Foxtail, Green); rate 0.1250 kg/ha): 9.0 | Preemergence herbicidal rating SETVI (SETVI (Foxtail, Green); rate 0.2500 kg/ha): 9.0 | Postemergence herbicidal rating ORYSAT (ORYSAT (Rice, Tebonnet) [5]; Rate 0.0158 kg/ha): 0.5 | Postemergence herbicidal rating ORYSAT (ORYSAT (Rice, Tebonnet) [5]; Rate 0.0315 kg/ha): 1.0 | Postemergence herbicidal rating ORYSAT (ORYSAT (Rice, Tebonnet) [5]; Rate 0.0630 kg/ha): 6.0 | Preemergence herbicidal rating ORYSAT (ORYSAT (Rice, Tebonnet) [6]; rate 0.0625 kg/ha): 0.0 | Preemergence herbicidal rating ORYSAT (ORYSAT (Rice, Tebonnet) [6]; rate 0.1250 kg/ha): 0.0 | Preemergence herbicidal rating ORYSAT (ORYSAT (Rice, Tebonnet) [6]; rate 0.2500 kg/ha): 4.0 | Preemergence herbicidal rating GALAP (GALAP (Galium); rate 0.0625 kg/ha): 9.0 | Preemergence herbicidal rating GALAP (GALAP (Galium); rate 0.1250 kg/ha): 9.0 | Preemergence herbicidal rating GALAP (GALAP (Galium); rate 0.2500 kg/ha): 9.0 | Postemergence herbicidal rating CASOB (CASOB (Sicklepod); Rate 0.0158 kg/ha): 0.0 | Postemergence herbicidal rating CASOB (CASOB (Sicklepod); Rate 0.0315 kg/ha): 0.0 | Postemergence herbicidal rating CASOB (CASOB (Sicklepod); Rate 0.0630 kg/ha): 0.0 | Postemergence herbicidal rating ECHCG (ECHCG (Barnyardgrass); Rate 0.0158 kg/ha): 0.0 | Postemergence herbicidal rating ECHCG (ECHCG (Barnyardgrass); Rate 0.0315 kg/ha): 2.0 | Postemergence herbicidal rating ECHCG (ECHCG (Barnyardgrass); Rate 0.0630 kg/ha): 9.0 | Herbicidal rating CYPIR (CYPIR (Rice Flatsedge); 0.0313 kg/ha): 0.0 | Herbicidal rating CYPIR (CYPIR (Rice Flatsedge); 0.0625 kg/ha): 5.0 | Herbicidal rating CYPIR (CYPIR (Rice Flatsedge); 0.1250 kg/ha): 5.0 | Herbicidal rating CYPIR (CYPIR (Rice Flatsedge); 0.2500 kg/ha): 9.0

CCOC(=O)C(c1ccc(Cl)cc1)N1C(=O)CSC1=Nc1cc(-n2c(=O)cc(C(F)(F)F)n(C)c2=O)c(F)cc1Cl (racemic) [Compound 79, Ethyl α-(p-chlorophenyl)-2-{{2-chloro-5-[3,6-dihydro-3-methyl-2,6-dioxo-4-(trifluoromethyl)-1(2H)-pyrimidinyl]-4-fluorophenyl}imino}-4-oxo-3-thiazolidineacetate, DL-]
CHEAL herbicidal rating ([1]; rate 0.0158 kg/ha): 1.0 | CHEAL herbicidal rating ([1]; rate 0.0315 kg/ha): 7.0 | CHEAL herbicidal rating ([1]; rate 0.0630 kg/ha): 7.0 | Herbicidal rating CYPSE (CYPSE (Flatsedge); Rate 0.0313 kg/ha, rated 3 to 4 weeks after treatment): 0.0 | Herbicidal rating CYPSE (CYPSE (Flatsedge); Rate 0.0625 kg/ha, rated 3 to 4 weeks after treatment): 0.0 | Herbicidal rating CYPSE (CYPSE (Flatsedge); Rate 0.1250 kg/ha, rated 3 to 4 weeks after treatment): 0.0 | Herbicidal rating CYPSE (CYPSE (Flatsedge); Rate 0.2500 kg/ha, rated 3 to 4 weeks after treatment): 9.0 | Preemergence herbicidal rating TRZAWR ([2]; rate 0.0313 kg/ha): 0.0 | Preemergence herbicidal rating TRZAWR ([2]; rate 0.0625 kg/ha): 1.0 | Preemergence herbicidal rating TRZAWR ([2]; rate 0.1250 kg/ha): 0.0 | Preemergence herbicidal rating TRZAWR ([2]; rate 0.2500 kg/ha): 1.0 | Preemergence herbicidal rating ZEAMX (ZEAMX (Corn, Field); rate 0.0313 kg/ha): 1.0 | Preemergence herbicidal rating ZEAMX (ZEAMX (Corn, Field); rate 0.0625 kg/ha): 1.0 | Preemergence herbicidal rating ZEAMX (ZEAMX (Corn, Field); rate 0.1250 kg/ha): 1.0 | Preemergence herbicidal rating ZEAMX (ZEAMX (Corn, Field); rate 0.2500 kg/ha): 2.0 | Preemergence herbicidal rating GLXMAW ([3]; rate 0.0313 kg/ha): 1.0 | Preemergence herbicidal rating GLXMAW ([3]; rate 0.0625 kg/ha): 1.0 | Preemergence herbicidal rating GLXMAW ([3]; rate 0.1250 kg/ha): 0.0 | Preemergence herbicidal rating GLXMAW ([3]; rate 0.2500 kg/ha): 2.0 | SAGPY herbicidal effect rating ([4]; 0.0313 kg/ha): 0.0 | SAGPY herbicidal effect rating ([4]; 0.0625 kg/ha): 0.0 | SAGPY herbicidal effect rating ([4]; 0.1250 kg/ha): 4.0 | SAGPY herbicidal effect rating ([4]; 0.2500 kg/ha): 4.0 | Preemergence herbicidal rating SETVI (SETVI (Foxtail, Green); rate 0.0313 kg/ha): 1.0 | Preemergence herbicidal rating SETVI (SETVI (Foxtail, Green); rate 0.0625 kg/ha): 1.0 | Preemergence herbicidal rating SETVI (SETVI (Foxtail, Green); rate 0.1250 kg/ha): 1.0 | Preemergence herbicidal rating SETVI (SETVI (Foxtail, Green); rate 0.2500 kg/ha): 4.0 | ORYSAT herbicidal rating (ORYSAT (Rice, Tebonnet) [5]; rate 0.0158 kg/ha): 2.5 | ORYSAT herbicidal rating (ORYSAT (Rice, Tebonnet) [5]; rate 0.0315 kg/ha): 2.5 | ORYSAT herbicidal rating (ORYSAT (Rice, Tebonnet) [5]; rate 0.0630 kg/ha): 4.0 | Preemergence herbicidal rating ORYSAT (ORYSAT (Rice, Tebonnet) [6]; rate 0.0313 kg/ha): 0.0 | Preemergence herbicidal rating ORYSAT (ORYSAT (Rice, Tebonnet) [6]; rate 0.0625 kg/ha): 1.0 | Preemergence herbicidal rating ORYSAT (ORYSAT (Rice, Tebonnet) [6]; rate 0.1250 kg/ha): 0.0 | Preemergence herbicidal rating ORYSAT (ORYSAT (Rice, Tebonnet) [6]; rate 0.2500 kg/ha): 1.0 | Preemergence herbicidal rating GALAP (GALAP (Galium); rate 0.0313 kg/ha): 0.0 | Preemergence herbicidal rating GALAP (GALAP (Galium); rate 0.0625 kg/ha): 0.0 | Preemergence herbicidal rating GALAP (GALAP (Galium); rate 0.1250 kg/ha): 0.0 | Preemergence herbicidal rating GALAP (GALAP (Galium); rate 0.2500 kg/ha): 0.0 | CASOB herbicidal rating (CASOB (Sicklepod); rate 0.0158 kg/ha): 1.0 | CASOB herbicidal rating (CASOB (Sicklepod); rate 0.0315 kg/ha): 1.0 | CASOB herbicidal rating (CASOB (Sicklepod); rate 0.0630 kg/ha): 1.0 | ECHCG herbicidal rating (ECHCG (Barnyardgrass); rate 0.0158 kg/ha): 1.0 | ECHCG herbicidal rating (ECHCG (Barnyardgrass); rate 0.0315 kg/ha): 1.0 | ECHCG herbicidal rating (ECHCG (Barnyardgrass); rate 0.0630 kg/ha): 1.0 | CYPIR herbicidal effect rating (CYPIR (Rice Flatsedge); 0.0313 kg/ha): 0.0 | CYPIR herbicidal effect rating (CYPIR (Rice Flatsedge); 0.0625 kg/ha): 0.0 | CYPIR herbicidal effect rating (CYPIR (Rice Flatsedge); 0.1250 kg/ha): 2.0 | CYPIR herbicidal effect rating (CYPIR (Rice Flatsedge); 0.2500 kg/ha): 6.0
